Measurements: publication PMC10363032 (Cancer Chemotherapy and Pharmacology, 2023)
pIC50: −log10 of the molar value.

Tests used:
[1] = human, in vivo
Procedure: (§1) Safety was appraised throughout the study by the assessment of clinical and laboratory adverse events (AEs; graded by Common Terminology Criteria for Adverse Events [CTCAE], version 4.03), physical examination, and evaluation of vital signs and laboratory data (clinical chemistry and hematology).
(§2) Patients were evaluated according to the treatment received.

[2] = tested on: CYP3A; conditions: read-out: IC50, reversible inhibition of CYP3A; ref AstraZeneca, data on file, 2020; 16; cited from earlier work
[3] = clinical; conditions: human, in vivo, 225 mg
Procedure: PK parameters were derived using non-compartmental methods with Phoenix® WinNonlin® version 6.4 (Certara, LP, Princeton, NJ, USA). All descriptive and inferential statistical computations were performed using SAS® version 9.1 (SAS Institute, Cary, NC, USA).

[4] = safety and tolerability, adverse events (CTCAE version 4.03) in patients
Procedure: as §1, §2

[5] = Adavosertib n = 30, Adavosertib + cocktail n = 26

C=CCn1c(=O)c2cnc(Nc3ccc(N4CCN(C)CC4)cc3)nc2n1-c1cccc(C(C)(C)O)n1 [adavosertib]
AEs with an outcome of death [1]: No AEs with an outcome of death were observed | pIC50 [2]: 4.85 | CLss/F, arithmetic mean (SD) [3]: 38.0 (12.11) L/h | CLss/F, median (minimum, maximum) [3]: 36.9 (24.3, 63.5) L/h | Tmax [3]: 3 h | intra-patient variability for AUC0–12 and Cmax [3]: < 10% | AUC(0-t) ([3]; AUC0–12, arithmetic mean (SD)): 12.7 µM·h | AUC(0-t) ([3]; AUC0–12, geometric mean): 12.2 µM·h | AUC(0-t) ([3]; AUC0–12, median (minimum, maximum)): 12 µM·h | Cmax ([3]; arithmetic mean (SD)): 1490 nM | Cmax ([3]; geometric mean): 1440 nM | Cmax ([3]; median (minimum, maximum)): 1420 nM | Acute kidney injury (causally related), any grade [4, 5]: 1 (3.3) Number of patients (%) | Acute kidney injury (causally related), grade ≥3 [4, 5]: 1 ( 3. 3) Number of patients (%) | Anemia (causally related), any grade [4, 5]: 0 Number of patients (%) | Anemia (causally related), grade ≥3 [4, 5]: 0 Number of patients (%) | Any AE (causally related), any grade [4, 5]: 11 (36.7) Number of patients (%) | Any AE (causally related), grade ≥3 [4, 5]: 4 (13.3) Number of patients (%) | Blood and lymphatic system disorders (causally related), any grade [4, 5]: 2 ( 6. 7) Number of patients (%) | Blood and lymphatic system disorders (causally related), grade ≥3 [4, 5]: 1 (3.3) Number of patients (%) | Blood creatinine increased (causally related), any grade [4, 5]: 0 Number of patients (%) | Blood creatinine increased (causally related), grade ≥3 [4, 5]: 0 Number of patients (%) | Decreased appetite (causally related), any grade [4, 5]: 0 Number of patients (%) | Decreased appetite (causally related), grade ≥3 [4, 5]: 0 Number of patients (%) | Dehydration (causally related), any grade [4, 5]: 1 (3.3) Number of patients (%) | Dehydration (causally related), grade ≥3 [4, 5]: 1 (3.3) Number of patients (%) | Diarrhea (causally related), any grade [4, 5]: 10 (33.3) Number of patients (%) | Diarrhea (causally related), grade ≥3 [4, 5]: 3 (10.0) Number of patients (%) | Dizziness (causally related), any grade [4, 5]: 0 Number of patients (%) | Dizziness (causally related), grade ≥3 [4, 5]: 0 Number of patients (%) | Fatigue (causally related), any grade [4, 5]: 0 Number of patients (%) | Fatigue (causally related), grade ≥3 [4, 5]: 0 Number of patients (%) | Flushing (causally related), any grade [4, 5]: 0 Number of patients (%) | Flushing (causally related), grade ≥3 [4, 5]: 0 Number of patients (%) | Gastrointestinal disorders (causally related), any grade [4, 5]: 11 (36.7) Number of patients (%) | Gastrointestinal disorders (causally related), grade ≥3 [4, 5]: 3 (10.0) Number of patients (%) | General disorders and administration site conditions (causally related), any grade [4, 5]: 0 Number of patients (%) | General disorders and administration site conditions (causally related), grade ≥3 [4, 5]: 0 Number of patients (%) | Hypokalemia (causally related), any grade [4, 5]: 1 (3.3) Number of patients (%) | Hypokalemia (causally related), grade ≥3 [4, 5]: 1 (3.3) Number of patients (%) | Investigations (causally related), any grade [4, 5]: 2 (6.7) Number of patients (%) | Investigations (causally related), grade ≥3 [4, 5]: 0 Number of patients (%) | Metabolism and nutrition disorders (causally related), any grade [4, 5]: 2 (6.7) Number of patients (%) | Metabolism and nutrition disorders (causally related), grade ≥3 [4, 5]: 2 ( 6. 7) Number of patients (%) | Muscle spasms (causally related), any grade [4, 5]: 0 Number of patients (%) | Muscle spasms (causally related), grade ≥3 [4, 5]: 0 Number of patients (%) | Musculoskeletal and connective tissue disorders (causally related), any grade [4, 5]: 0 Number of patients (%) | Musculoskeletal and connective tissue disorders (causally related), grade ≥3 [4, 5]: 0 Number of patients (%) | Nasal ulcer (causally related), any grade [4, 5]: 0 Number of patients (%) | Nasal ulcer (causally related), grade ≥3 [4, 5]: 0 Number of patients (%) | Nausea (causally related), any grade [4, 5]: 3 (10.0) Number of patients (%) | Nausea (causally related), grade ≥3 [4, 5]: 1 (3.3) Number of patients (%) | Nervous system disorders (causally related), any grade [4, 5]: 0 Number of patients (%) | Nervous system disorders (causally related), grade ≥3 [4, 5]: 0 Number of patients (%) | Neutropenia (causally related), any grade [4, 5]: 1 (3.3) Number of patients (%) | Neutropenia (causally related), grade ≥3 [4, 5]: 1 (3.3) Number of patients (%) | Pancreatitis (causally related), any grade [4, 5]: 1 (3.3) Number of patients (%) | Pancreatitis (causally related), grade ≥3 [4, 5]: 1 (3.3) Number of patients (%) | Renal and urinary disorders (causally related), any grade [4, 5]: 1 (3.3) Number of patients (%) | Renal and urinary disorders (causally related), grade ≥3 [4, 5]: 1 (3.3) Number of patients (%) | Respiratory, thoracic and mediastinal disorders (causally related), any grade [4, 5]: 0 Number of patients (%) | Respiratory, thoracic and mediastinal disorders (causally related), grade ≥3 [4, 5]: 0 Number of patients (%) | Stomatitis (causally related), any grade [4, 5]: 0 Number of patients (%) | Stomatitis (causally related), grade ≥3 [4, 5]: 0 Number of patients (%) | Thrombocytopenia (causally related), any grade [4, 5]: 1 (3.3) Number of patients (%) | Thrombocytopenia (causally related), grade ≥3 [4, 5]: 0 Number of patients (%) | Vascular disorders (causally related), any grade [4, 5]: 0 Number of patients (%) | Vascular disorders (causally related), grade ≥3 [4, 5]: 0 Number of patients (%) | Vomiting (causally related), any grade [4, 5]: 6 (20.0) Number of patients (%) | Vomiting (causally related), grade ≥3 [4, 5]: 1 (3.3) Number of patients (%) | Weight decreased (causally related), any grade [4, 5]: 2 (6.7) Number of patients (%) | Weight decreased (causally related), grade ≥3 [4, 5]: 0 Number of patients (%) | Acute kidney injury (causally related), any grade ([4]; Total (n = 30)): 1 (3.3) Number of patients (%) | Acute kidney injury (causally related), grade ≥3 ([4]; Total (n = 30)): 1 (3.3) Number of patients (%) | Anemia (causally related), any grade ([4]; Total (n = 30)): 1 (3.3) Number of patients (%) | Anemia (causally related), grade ≥3 ([4]; Total (n = 30)): 1 (3.3) Number of patients (%) | Any AE (causally related), any grade ([4]; Total (n = 30)): 19 (63.3) Number of patients (%)
